Assay results: the NIST ThermoML archive (doi:10.1021/je200371n)

Conditions: Gas

S [hydrogen sulfide]
Mass density=0.74 kg/m3
Conditions	viscosity [mPa·s]
291.61 K	0.01186
292.3 K	0.01186
292.46 K	0.01187
292.77 K	0.01188
296.89 K	0.01207
297.01 K	0.01206
323.94 K	0.01319
323.96 K	0.01318
350.47 K	0.01429
350.59 K	0.0143
378.01 K	0.01543
378.19 K	0.01544
405.76 K	0.01656
405.86 K	0.01657
433.66 K	0.01769
433.81 K	0.0177
461.72 K	0.01881
461.92 K	0.01882
490.09 K	0.01993
490.2 K	0.01992
518.68 K	0.021
518.75 K	0.021
542.48 K	0.0219
542.61 K	0.0219
565.19 K	0.02274
565.29 K	0.02275
593.95 K	0.02379
594.02 K	0.02379
623.07 K	0.02482
623.19 K	0.02482
652.3 K	0.02584
652.32 K	0.02584
681.36 K	0.02682
682.03 K	0.02684

C [methane]
Conditions	viscosity [mPa·s]
289.05 K, Mass density=0.498 kg/m3	0.01081
290.41 K, Mass density=0.498 kg/m3	0.01083
291.93 K, Mass density=0.344 kg/m3	0.01089
292.96 K, Mass density=0.344 kg/m3	0.01092
296.43 K, Mass density=0.498 kg/m3	0.01103
296.57 K, Mass density=0.498 kg/m3	0.01105
297.08 K, Mass density=0.344 kg/m3	0.01106
323.43 K, Mass density=0.498 kg/m3	0.01189
323.86 K, Mass density=0.344 kg/m3	0.01191
350.55 K, Mass density=0.344 kg/m3	0.01273
350.64 K, Mass density=0.498 kg/m3	0.01272
378.15 K, Mass density=0.344 kg/m3	0.01356
378.25 K, Mass density=0.498 kg/m3	0.01355
405.88 K, Mass density=0.344 kg/m3	0.01436
406.03 K, Mass density=0.498 kg/m3	0.01436
433.83 K, Mass density=0.344 kg/m3	0.01514
434.02 K, Mass density=0.498 kg/m3	0.01514
461.75 K, Mass density=0.498 kg/m3	0.0159
461.85 K, Mass density=0.344 kg/m3	0.01591
490.13 K, Mass density=0.344 kg/m3	0.01666
490.15 K, Mass density=0.498 kg/m3	0.01665
518.8 K, Mass density=0.498 kg/m3	0.0174
518.83 K, Mass density=0.344 kg/m3	0.01739
542.36 K, Mass density=0.498 kg/m3	0.01798
542.6 K, Mass density=0.344 kg/m3	0.01799
565.1 K, Mass density=0.498 kg/m3	0.01854
565.38 K, Mass density=0.344 kg/m3	0.01856
593.84 K, Mass density=0.498 kg/m3	0.01924
594.08 K, Mass density=0.344 kg/m3	0.01925
623.05 K, Mass density=0.498 kg/m3	0.01993
623.33 K, Mass density=0.344 kg/m3	0.01995
652.07 K, Mass density=0.498 kg/m3	0.02061
652.41 K, Mass density=0.344 kg/m3	0.02062
681.93 K, Mass density=0.498 kg/m3	0.02127
682.14 K, Mass density=0.344 kg/m3	0.0213
